Reference: ChEMBL document CHEMBL5053549, “Discovery of Potent and Novel Dual PARP/BRD4 Inhibitors for Efficient Treatment of Pancreatic Cancer” (J Med Chem, 2021)
Blank lines part the entries; values can stand above or below the compound they belong to. Active and inactive are the calls of the source. No cut-off for these calls is given here.

Assays:
[1] = biological target: T1, Bromodomain-containing protein 4 (Homo sapiens, UniProt O60885); assay: Inhibition of recombinant BRD4 (unknown origin) incubated for 120 mins by TR-FRET assay
[2] = biological target: Poly [ADP-ribose] polymerase 1 (Homo sapiens, UniProt P09874); assay: Inhibition of PARP1 (unknown origin) incubated for 45 mins in presence of biotinylated-NAD+ by microplate reader analysis
[3] = system: MDA-MB-231; assay: Antiproliferative activity against human MDA-MB-231 cells assessed as reduction in cell viability after 7 days; assay type: functional, cell-based; conditions: MDA-MB-231, 168 h
[4] = system: SW1990; assay: Antiproliferative activity against human SW1990 cells assessed as reduction in cell viability after 4 days by MTT assay; assay type: functional, cell-based; conditions: SW1990, 96 h
[5] = biological target: T1, Bromodomain-containing protein 4; assay: Inhibition of recombinant BRD4 (unknown origin) at 0.5 uM incubated for 120 mins by TR-FRET assay relative to control
[6] = system: Mus musculus; assay: Toxicity in BALB/c mouse xenografted with human SW1990 cells assessed as spleen damage at 45 mg/kg, ip administered for 28 consecutive days by H and E staining based […] microscopic analysis; assay type: organism-based; conditions: in vivo, 672 h, time 28 day
[7] = system: Mus musculus; assay: Toxicity in BALB/c mouse xenografted with human SW1990 cells assessed as liver damage at 45 mg/kg, ip administered for 28 consecutive days by H and E staining based […] microscopic analysis; assay type: organism-based; conditions: in vivo, 672 h, time 28 day
[8] = system: SW1990; assay: Effect on cell cycle progression in human SW1990 cells assessed as reduction in PLK1 expression at 6 uM after 4 days by Western blot analysis; assay type: functional, cell-based; conditions: time 4.0 day
[9] = system: Mus musculus; assay: In vivo inhibition of BRD4 expression in human […] cells xenografted in BALB/c mouse at 45 mg/kg, ip administered for 28 consecutive days by immunohistochemical analysis; assay type: functional, organism-based; conditions: time 28.0 day
[10] = system: Mus musculus; assay: In vivo inhibition of BRD4 expression in human […] cells xenografted in BALB/c mouse at 45 mg/kg, ip administered for 28 consecutive days by Q-PCR analysis; assay type: functional, organism-based; conditions: time 28.0 day
[11] = system: Mus musculus; assay: Effect on cell cycle progression in human SW1990 cells xenografted in BALB/c mouse assessed as reduction in PLK1 expression at 45 mg/kg, ip after 4 days by Q-PCR analysis; assay type: functional, organism-based; conditions: time 4.0 day
[12] = system: SW1990; assay: Inhibition of homologous recombinant repair in human SW1990 cells assessed as reduction in FOXM1 expression at 6 uM after 4 days by Q-PCR analysis; assay type: functional, cell-based; conditions: time 4.0 day
[13] = biological target: T1, Bromodomain-containing protein 4; assay: Inhibition of BRD4 expression in human SW1990 cells at 6 uM after 4 days by Western blot analysis; assay type: cell-based; conditions: time 4.0 day
[14] = system: SW1990; assay: Effect on cell cycle progression in human SW1990 cells assessed as reduction in CCND1 expression at 6 uM after 4 days by Q-PCR analysis; assay type: functional, cell-based; conditions: time 4.0 day
[15] = system: SW1990; assay: Induction of autophagy in human SW1990 cells assessed as reduction in p62 expression at 6 uM incubated for 4 days by immunofluorescence assay; assay type: functional, cell-based; conditions: time 4.0 day
[16] = system: Mus musculus; assay: Effect on cell cycle progression in human SW1990 cells xenografted in BALB/c mouse assessed as reduction in PLK1 expression at 45 mg/kg, ip after 4 days by Western blot analysis; assay type: functional, organism-based; conditions: time 4.0 day
[17] = system: Mus musculus; assay: Toxicity in BALB/c mouse xenografted with human SW1990 cells assessed as effect on body weight at 45 mg/kg, ip administered for 28 consecutive days; assay type: organism-based; conditions: in vivo, 672 h, time 28 day
[18] = system: CFPAC-1; assay: Antiproliferative activity against human CFPAC-1 cells assessed as reduction in cell viability after 4 days by MTT assay; assay type: functional, cell-based; conditions: CFPAC-1, 96 h
[19] = system: SW1990; assay: Induction of autophagy in human SW1990 cells assessed as increase in LC3B expression at 6 uM incubated for 4 days by immunofluorescence assay; assay type: functional, cell-based; conditions: time 4.0 day
[20] = system: SW1990; assay: Effect on cell cycle progression in human SW1990 cells assessed as reduction in PLK1 expression at 6 uM after 4 days by Q-PCR analysis; assay type: functional, cell-based; conditions: time 4.0 day
[21] = system: Mus musculus; assay: In vivo inhibition of BRD4 expression in human […] cells xenografted in BALB/c mouse at 45 mg/kg, ip administered for 28 consecutive days by Western blot analysis; assay type: functional, organism-based; conditions: time 28.0 day
[22] = system: Mus musculus; assay: Effect on cell cycle progression in human SW1990 cells xenografted in BALB/c mouse assessed as reduction in CDK6 expression at 45 mg/kg, ip after 4 days by Q-PCR analysis; assay type: functional, organism-based; conditions: time 4.0 day
[23] = system: SW1990; assay: Effect on cell cycle progression in human SW1990 cells assessed as reduction in CDK6 expression at 6 uM after 4 days by Western blot analysis; assay type: functional, cell-based; conditions: time 4.0 day
[24] = system: SW1990; assay: Inhibition of homologous recombinant repair in human SW1990 cells assessed as reduction in BRCA1 expression at 6 uM after 4 days by Western blot analysis; assay type: functional, cell-based; conditions: time 4.0 day
[25] = biological target: T1, Bromodomain-containing protein 4; assay: Inhibition of BRD4 expression in human SW1990 cells at 6 uM after 4 days by Q-PCR analysis; assay type: cell-based; conditions: time 4.0 day
[26] = system: Mus musculus; assay: Toxicity in BALB/c mouse xenografted with human SW1990 cells assessed as heart damage at 45 mg/kg, ip administered for 28 consecutive days by H and E staining based […] microscopic analysis; assay type: organism-based; conditions: in vivo, 672 h, time 28 day
[27] = system: SW1990; assay: Effect on cell cycle progression in human SW1990 cells assessed as reduction in CCND1 expression at 6 uM after 4 days by Western blot analysis; assay type: functional, cell-based; conditions: time 4.0 day
[28] = system: SW1990; assay: Induction of DNA damage in human SW1990 cells assessed as tail DNA at 6 uM incubated for 4 days by comet assay; assay type: functional, cell-based; conditions: time 4.0 day
[29] = system: SW1990; assay: Inhibition of homologous recombinant repair in human SW1990 cells assessed as reduction in BRCA1 expression at 6 uM after 4 days by Q-PCR analysis; assay type: functional, cell-based; conditions: time 4.0 day
[30] = system: SW1990; assay: Inhibition of homologous recombinant repair in human SW1990 cells assessed as reduction in Rad51 expression at 6 uM after 4 days by Western blot analysis; assay type: functional, cell-based; conditions: time 4.0 day
[31] = system: SW1990; assay: Induction of DNA damage in human SW1990 cells assessed as increase in gammaH2AX at 6 uM incubated for 4 days by immunofluorescence assay; assay type: functional, cell-based; conditions: time 4.0 day
[32] = system: Mus musculus; assay: Effect on cell cycle progression in human SW1990 cells xenografted in BALB/c mouse assessed as reduction in CCND1 expression at 45 mg/kg, ip after 4 days by Q-PCR analysis; assay type: functional, organism-based; conditions: time 4.0 day
[33] = system: SW1990; assay: Inhibition of homologous recombinant repair in human SW1990 cells assessed as reduction in Rad51 expression at 6 uM after 4 days by Q-PCR analysis; assay type: functional, cell-based; conditions: time 4.0 day
[34] = system: Mus musculus; assay: Toxicity in BALB/c mouse xenografted with human SW1990 cells assessed as lung damage at 45 mg/kg, ip administered for 28 consecutive days by H and E staining based […] microscopic analysis; assay type: organism-based; conditions: in vivo, 672 h, time 28 day
[35] = system: SW1990; assay: Effect on cell cycle progression in human SW1990 cells assessed as reduction in CDK6 expression at 6 uM after 4 days by Q-PCR analysis; assay type: functional, cell-based; conditions: time 4.0 day
[36] = system: Mus musculus; assay: Toxicity in BALB/c mouse xenografted with human SW1990 cells assessed as kidney damage at 45 mg/kg, ip administered for 28 consecutive days by H and E staining based […] microscopic analysis; assay type: organism-based; conditions: in vivo, 672 h, time 28 day
[37] = system: Mus musculus; assay: In vivo inhibition of PARP1 expression in human […] cells xenografted in BALB/c mouse at 45 mg/kg, ip administered for 28 consecutive days by immunohistochemical analysis; assay type: functional, organism-based; conditions: time 28.0 day
[38] = system: Mus musculus; assay: Effect on cell cycle progression in human SW1990 cells xenografted in BALB/c mouse assessed as reduction in CDK6 expression at 45 mg/kg, ip after 4 days by Western blot analysis; assay type: functional, organism-based; conditions: time 4.0 day
[39] = system: Mus musculus; assay: In vivo inhibition of PARP1 expression in human […] cells xenografted in BALB/c mouse at 45 mg/kg, ip administered for 28 consecutive days by Q-PCR analysis; assay type: functional, organism-based; conditions: time 28.0 day
[40] = system: Mus musculus; assay: Effect on cell cycle progression in human SW1990 cells xenografted in BALB/c mouse assessed as reduction in CCND1 expression at 45 mg/kg, ip after 4 days by Western blot analysis; assay type: functional, organism-based; conditions: time 4.0 day
[41] = system: Mus musculus; assay: In vivo inhibition of PARP1 expression in human […] cells xenografted in BALB/c mouse at 45 mg/kg, ip administered for 28 consecutive days by Western blot analysis; assay type: functional, organism-based; conditions: time 28.0 day
[42] = system: CAPAN-1; assay: Antiproliferative activity against human CAPAN-1 cells assessed as reduction in cell viability after 4 days by MTT assay; assay type: functional, cell-based; conditions: CAPAN-1, 96 h

Sequence of Poly [ADP-ribose] polymerase 1 (P09874 whole entry): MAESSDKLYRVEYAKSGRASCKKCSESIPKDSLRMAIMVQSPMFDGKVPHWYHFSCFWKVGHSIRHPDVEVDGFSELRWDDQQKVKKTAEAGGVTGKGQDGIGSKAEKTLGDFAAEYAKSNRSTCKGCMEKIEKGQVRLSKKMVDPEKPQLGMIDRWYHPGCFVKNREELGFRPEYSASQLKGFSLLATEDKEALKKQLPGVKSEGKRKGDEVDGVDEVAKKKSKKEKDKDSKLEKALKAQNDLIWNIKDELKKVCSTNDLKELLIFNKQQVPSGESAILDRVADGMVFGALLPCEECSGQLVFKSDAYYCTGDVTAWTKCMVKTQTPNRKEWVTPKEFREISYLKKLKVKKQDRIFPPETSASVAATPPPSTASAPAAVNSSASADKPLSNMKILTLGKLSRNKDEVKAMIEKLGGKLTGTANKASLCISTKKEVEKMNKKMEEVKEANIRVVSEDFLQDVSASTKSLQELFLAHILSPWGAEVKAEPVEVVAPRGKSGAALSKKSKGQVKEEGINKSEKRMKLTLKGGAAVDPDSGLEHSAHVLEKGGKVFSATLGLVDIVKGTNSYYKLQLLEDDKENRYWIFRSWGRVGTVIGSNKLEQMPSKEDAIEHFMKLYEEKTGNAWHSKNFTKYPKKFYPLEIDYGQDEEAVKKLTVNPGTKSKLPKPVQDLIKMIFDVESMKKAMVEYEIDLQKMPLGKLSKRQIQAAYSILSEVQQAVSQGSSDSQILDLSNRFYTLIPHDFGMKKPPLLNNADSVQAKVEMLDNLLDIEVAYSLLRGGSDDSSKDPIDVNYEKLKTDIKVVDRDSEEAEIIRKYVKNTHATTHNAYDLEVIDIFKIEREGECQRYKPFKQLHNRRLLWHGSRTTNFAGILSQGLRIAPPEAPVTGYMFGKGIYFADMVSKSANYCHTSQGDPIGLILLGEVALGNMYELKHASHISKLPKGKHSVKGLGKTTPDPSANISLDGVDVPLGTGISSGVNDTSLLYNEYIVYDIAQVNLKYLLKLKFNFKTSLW

IC50 [2]: 306 nM | IC50 [3]: 790 nM | IC50 [4]: 2450 nM | inhibition [5]: 86%
SMILES: CCOc1cc(-c2nc3c(C(N)=O)cccc3[nH]2)ccc1Nc1ncc2c(n1)N(C1CCCC1)[C@H](CC)C(=O)N2C

IC50 [1]: 842 nM | IC50 [2]: 43 nM | IC50 [3]: 830 nM | IC50 [4]: 2810 nM
SMILES: CC[C@@H]1C(=O)N(C)c2cnc(Nc3ccc(-c4nc5c(C(N)=O)cccc5[nH]4)cc3)nc2N1C1CCCC1

IC50 [1]: 693 nM | IC50 [2]: 155 nM
SMILES: CC[C@@H]1C(=O)N(C)c2cnc(Nc3cccc(-c4nc5c(C(N)=O)cccc5[nH]4)c3)nc2N1C1CCCC1

Further lines, the compound ahead of its results:

SMILES: COc1cc(-c2nc3c(C(N)=O)cccc3[nH]2)ccc1N(C)c1ncc2c(n1)N(C1CCCC1)[C@H](C)C(=O)N2C
IC50 [1]: 202 nM | IC50 [2]: 25 nM | IC50 [3]: 460 nM | IC50 [4]: 1530 nM

SMILES: CC[C@@H]1C(=O)N(C)c2cnc(Nc3ccc(C(=O)NCc4nc5c(C(N)=O)cccc5[nH]4)cc3OC)nc2N1C1CCCC1
IC50 [1]: 374 nM | IC50 [2]: 341 nM

SMILES: CC[C@@H]1C(=O)N(C)c2cnc(Nc3ccc(-c4nc5c(C(N)=O)cccc5[nH]4)cc3OC3CCCC3)nc2N1C1CCCC1
IC50 [2]: 1820 nM | inhibition [5]: 47%

SMILES: O=C(c1cc(Cc2n[nH]c(=O)c3ccccc23)ccc1F)N1CCN(C(=O)C2CC2)CC1 [OLAPARIB]
Activity [6]: Non-Toxic | Activity [7]: Non-Toxic | Activity [8]: inactive | Activity [9]: inactive | Activity [10]: inactive | Activity [11]: inactive | inhibition [12]: inactive | inhibition [13]: inactive | Activity [14]: inactive | Activity [15]: inactive | Activity [16]: inactive | Activity [17]: Non-Toxic | IC50 [18]: 13700 nM | Activity [19]: inactive | Activity [20]: inactive | Activity [21]: inactive | Activity [22]: inactive | Activity [23]: inactive | inhibition [24]: inactive | inhibition [25]: inactive | Activity [26]: Non-Toxic | Activity [27]: inactive | Activity [28]: Active | inhibition [29]: inactive | inhibition [30]: inactive | Activity [31]: inactive | IC50 [3]: 8480 nM | Activity [32]: inactive | inhibition [33]: inactive | IC50 [4]: 5730 nM | Activity [34]: Non-Toxic | Activity [35]: inactive | Activity [36]: Non-Toxic | Activity [37]: inactive | Activity [38]: inactive | Activity [39]: inactive | Activity [40]: inactive | Activity [41]: inactive | IC50 [42]: 8420 nM

SMILES: COc1cc(-c2nc3c(C(N)=O)cccc3[nH]2)ccc1Nc1ncc2c(n1)N(C1CCCC1)[C@H](C)C(=O)N2C
IC50 [1]: 250 nM | IC50 [2]: 127 nM | IC50 [3]: 470 nM | IC50 [4]: 1620 nM
